Target: T1, PTK2 enzyme (Homo sapiens, UniProt Q05397)
T1 construct: purchased Invitrogen PV3832
Test: PTK2 enzyme test, Assay 1 (DELFIA, poly-Glu-Tyr substrate, antibody PT60)
Type: biochemical
Details: Assay 1 (values without *); 1 h pre-incubation, 2% DMSO
Procedure: This test uses active PTK2 enzyme (Invitrogen Code PV3832) and poly-Glu-Tyr (4:1, Sigma P-0275) as the kinase substrate. The kinase activity is detected through the phosphorylation of the substrate in a DELFIA™ assay. The phosphorylated substrate is detected with the europium-labelled phosphotyrosine antibody PT60 (Perkin Elmer, No.: AD00400).
In order to determine concentration-activity curves with PTK2-inhibitors the compounds are serially diluted in 10% DMSO/H2O and 10 μL of each dilution are placed in each well of a 96-well microtitre plate (clear plate with a U-shaped base, Greiner No. 650101) (the inhibitors are tested in duplicates) and mixed with 10 μL/well of PTK2 kinase (0.01 μg/well). PTK2 kinase has been correspondingly diluted beforehand with kinase dilution buffer (20 mM TRIS/HCl pH 7.5, 0.1 mM EDTA, 0.1 mM EGTA, 0.286 mM sodium orthovanadate, 10% glycerol with the addition of freshly prepared BSA (fraction V, 1 mg/mL) and DTT (1 mM)). The test compound and the PTK2 kinase are pre-incubated for 1 h at RT and shaken at 500 revolutions per min. The reaction is started by the addition of 10 μL/well poly (Glu,Tyr) substrate (25 μg/well poly (Glu, Tyr), 0.05 μg/well biotinylated poly (Glu,Tyr) dissolved in 250 mM TRIS/HCl pH 7.5, 9 mM DTT)—the final concentration of DMSO is 2%. Then 20 μL of ATP Mix (30 mM TRIS/HCl pH 7.5, 0.02% Brij, 0.2 mM sodium orthovanadate, 10 mM magnesium acetate, 0.1 mM EGTA, 1× phosphatase inhibitor cocktail 1 (Sigma, No.: P2850), 50 μM ATP (Sigma, No.: A3377; 15 mM stock solution)) are added. After 1 h of kinase reaction (the plates are shaken at 500 rpm), the reaction is stopped by the addition of 12 μL/well 100 mM EDTA, pH 8.0 and shaken for a further 5 min at RT (500 rpm). 55 μL of the reaction mixture are transferred into a streptavidin plate (Strepta Well High Bind (transparent, 96-well) made by Roche, No.: 11989685001) and incubated for 1 h at RT (shaking at 500 rpm). Then the microtitre plate is washed three times with 200 μL/well D-PBS (Invitrogen, No. 14190). 100 μL of a solution containing DELFIA Eu-N1 Anti-Phosphotyrosine PT60 antibody (Perkin Elmer, No.: AD0040, diluted 1:2000 in DELFIA test buffer (Perkin Elmer, No.: 1244-111)) is then added and the mixture is incubated for 1 h at RT (shaking at 500 rpm). Then the plate is washed three times with 200 μL/well DELFIA washing buffer (Perkin Elmer, No.: 1244-114), 200 μL/well strengthening solution (Perkin Elmer, No.: 1244-105) are added and the mixture is incubated for 10 min at RT (shaking at 300 rpm).
The time-delayed europium fluorescence is then measured in a microtitre plate reader (VICTOR^3, Perkin Elmer). […] Wells that contain test buffer instead of enzyme are used as a control of the background kinase activity.
The IC50 values are determined from analyses of the concentration activity by iterative calculation with the aid of a sigmoid curve analysis algorithm (FIFTY, based on Graph PAD Prism Version 3.03) with a variable Hill coefficient.

T1 sequence (Q05397 whole entry): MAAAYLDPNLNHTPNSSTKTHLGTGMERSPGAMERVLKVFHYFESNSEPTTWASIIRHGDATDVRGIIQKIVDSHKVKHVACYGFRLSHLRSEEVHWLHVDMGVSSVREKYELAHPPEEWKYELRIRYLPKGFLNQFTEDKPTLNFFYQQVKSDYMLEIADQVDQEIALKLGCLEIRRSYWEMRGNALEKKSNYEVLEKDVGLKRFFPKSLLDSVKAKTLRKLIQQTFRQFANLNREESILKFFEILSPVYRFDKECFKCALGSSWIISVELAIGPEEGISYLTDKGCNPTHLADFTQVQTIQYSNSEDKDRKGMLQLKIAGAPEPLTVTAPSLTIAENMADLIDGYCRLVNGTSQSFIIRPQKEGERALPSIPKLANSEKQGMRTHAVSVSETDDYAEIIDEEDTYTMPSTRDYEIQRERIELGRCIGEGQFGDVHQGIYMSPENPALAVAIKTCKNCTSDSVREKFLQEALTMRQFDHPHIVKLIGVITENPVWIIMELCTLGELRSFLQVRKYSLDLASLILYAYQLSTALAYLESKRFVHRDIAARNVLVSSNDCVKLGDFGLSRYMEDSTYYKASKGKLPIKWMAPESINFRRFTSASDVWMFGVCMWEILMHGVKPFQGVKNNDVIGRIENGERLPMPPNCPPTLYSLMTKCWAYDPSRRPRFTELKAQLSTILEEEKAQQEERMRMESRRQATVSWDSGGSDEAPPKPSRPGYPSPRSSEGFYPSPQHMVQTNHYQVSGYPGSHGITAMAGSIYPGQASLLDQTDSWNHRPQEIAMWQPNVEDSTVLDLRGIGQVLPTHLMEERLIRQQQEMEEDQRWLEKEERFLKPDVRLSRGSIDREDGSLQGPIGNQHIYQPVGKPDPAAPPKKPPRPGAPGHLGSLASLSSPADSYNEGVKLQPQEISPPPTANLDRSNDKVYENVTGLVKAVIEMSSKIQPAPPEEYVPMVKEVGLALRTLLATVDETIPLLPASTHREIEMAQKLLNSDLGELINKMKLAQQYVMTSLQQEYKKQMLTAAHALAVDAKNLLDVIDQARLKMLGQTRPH

Row | Structure (SMILES) | IC50
1 | COc1cc(C(=O)NC2CCN(C)CC2)ccc1Nc1ncc(C(F)(F)F)c(N[C@@H]2CCCC[C@@H]2N(OC)C(C)=O)n1 [Example I-114] | 1 nM
2 | COc1cc(CN2CCOCC2)ccc1Nc1ncc(C(F)(F)F)c(N[C@@H]2CCCC[C@H]2NC(C)=O)n1 [Example I-115] | 1 nM
3 | COc1cc(CN2CCN(C)CC2)ccc1Nc1ncc(C(F)(F)F)c(N[C@@H]2CCCC[C@H]2NC(C)=O)n1 [Example I-116] | 1 nM
4 | COc1cc(CN2CCCC2)ccc1Nc1ncc(C(F)(F)F)c(N[C@@H]2CCCC[C@H]2NC(C)=O)n1 [Example I-117] | 1 nM
5 | COc1cc(CN(C)C)ccc1Nc1ncc(C(F)(F)F)c(N[C@@H]2CCCC[C@H]2NC(C)=O)n1 [Example I-118] | 1 nM
6 | CON[C@@H]1CCCC[C@H]1Nc1nc(Nc2ccc(C(=O)NC3CCN(C)CC3)cc2OC)ncc1C(F)(F)F [Example I-119] | 6 nM
7 | CCC(=O)N[C@@H]1CCCC[C@H]1Nc1nc(Nc2cc(F)c(C(=O)NC3CCN(C)CC3)cc2OC)ncc1C(F)(F)F [Example I-120] | 2 nM
8 | COc1cc(C(=O)NC2CCN(C)CC2)c(F)cc1Nc1ncc(C(F)(F)F)c(N[C@@H]2CCCC[C@H]2NC(=O)C(C)C)n1 [Example I-121] | 3 nM
9 | CCN1CCC(NC(=O)c2ccc(Nc3ncc(C(F)(F)F)c(N[C@@H]4CCC[C@H]4N(C)S(C)(=O)=O)n3)c(OC)c2)CC1 [Example I-129] | 0.73 nM
10 | COc1cc(C(=O)NOCCN(C)C)ccc1Nc1ncc(C(F)(F)F)c(N[C@@H]2CCCC[C@H]2N(C)S(C)(=O)=O)n1 [Example I-132] | 0.93 nM
11 | COc1cc(C(=O)NC2CCN(C)CC2)c(F)cc1Nc1ncc(C(F)(F)F)c(N[C@@H]2CCCC[C@H]2NS(C)(=O)=O)n1 [Example I-141] | 1 nM
12 | COc1cc(N2CCN(C)CC2)ccc1Nc1ncc(C(F)(F)F)c(N[C@@H]2CCCC[C@H]2N(C)S(C)(=O)=O)n1 [Example I-143] | 0.94 nM
13 | COc1cc(N2CCN(C(C)(C)C)CC2)ccc1Nc1ncc(C(F)(F)F)c(N[C@@H]2CCCC[C@H]2N(C)S(C)(=O)=O)n1 [Example I-145] | 3 nM
14 | CCN([C@@H]1CCCC[C@H]1Nc1nc(Nc2ccc(C(=O)NC3CCCN(C)C3)cc2OC)ncc1C(F)(F)F)S(C)(=O)=O (some centres unmarked) [Example I-149] | 2 nM
15 | COc1cc(N2CCN(CC(=O)N(C)C)CC2)ccc1Nc1ncc(C(F)(F)F)c(N[C@@H]2CCCC[C@H]2N(C)S(C)(=O)=O)n1 [Example I-150] | 2 nM
16 | COc1cc(C(=O)NC2CCN(C)CC2)c(F)cc1Nc1ncc(C(F)(F)F)c(N[C@@H]2CCCC[C@H]2NC(C)=O)n1 [Example I-154] | 1 nM
17 | CCS(=O)(=O)N(C)[C@@H]1CCCC[C@H]1Nc1nc(Nc2ccc(C(=O)NCCN(C)C)cc2OC)ncc1C(F)(F)F [Example I-156] | 2 nM
18 | COc1cc([C@@H](O)CO)ccc1Nc1ncc(C(F)(F)F)c(N[C@@H]2CCCC[C@H]2N(C)S(C)(=O)=O)n1 [Example I-157] | 0.69 nM
19 | CCN1CCC(NC(=O)c2cc(OC)c(Nc3ncc(C(F)(F)F)c(N[C@@H]4CCCC[C@H]4N(C)C(C)=O)n3)cc2F)CC1 [Example I-161] | 1 nM

Row | Structure (SMILES) | IC50
20 | COc1cc(C(=O)NC2CCN(C)CC2)ccc1Nc1ncc(Cl)c(N[C@@H]2CCCC[C@H]2N(C)S(C)(=O)=O)n1 [Example I-162] | 1 nM
21 | COc1cc(C(=O)NC2CCCN(C)C2)ccc1Nc1ncc(Cl)c(N[C@@H]2CCCC[C@H]2N(C)S(C)(=O)=O)n1 (some centres unmarked) [Example I-163] | 2 nM
22 | COCCN1CCC(NC(=O)c2cc(OC)c(Nc3ncc(Cl)c(N[C@@H]4CCCC[C@H]4N(C)S(C)(=O)=O)n3)cc2Cl)CC1 [Example I-167] | 3 nM
23 | COc1cc(C(=O)NC2CCN(C)CC2)c(Cl)cc1Nc1ncc(Cl)c(N[C@@H]2CCCC[C@H]2N(C)S(C)(=O)=O)n1 [Example I-168] | 3 nM
24 | CCN1CCC(NC(=O)c2cc(OC)c(Nc3ncc(Cl)c(N[C@@H]4CCCC[C@H]4N(C)S(C)(=O)=O)n3)cc2F)CC1 [Example I-169] | 4 nM
25 | COc1cc(C(=O)NCCN(C)C)c(F)cc1Nc1ncc(Cl)c(N[C@@H]2CCC[C@H]2N(C)S(C)(=O)=O)n1 [Example I-170] | 2 nM
26 | COc1cc(C(=O)NCCN(C)C)c(Cl)cc1Nc1ncc(Cl)c(N[C@@H]2CCCC[C@H]2N(C)S(C)(=O)=O)n1 [Example I-171] | 2 nM
27 | COc1cc(C(=O)NCCN(C)C)c(Cl)cc1Nc1ncc(Br)c(N[C@@H]2CCCC[C@H]2N(C)S(C)(=O)=O)n1 [Example I-172] | 2 nM
28 | COc1cc(Nc2ncc(C(F)(F)F)c(N[C@@H]3CCCC[C@H]3N(C)S(C)(=O)=O)n2)ccc1C(=O)NC1CCN(C)CC1 [Example I-173] | 2 nM
29 | COc1cc(C(=O)NC2CCN(C)CC2)c(F)cc1Nc1ncc(Cl)c(N[C@@H]2CCCC[C@H]2N(C)S(C)(=O)=O)n1 [Example I-174] | 4 nM
30 | COc1cc(C(=O)NC2CCN(C)CC2)ccc1Nc1ncc(C(C)C)c(N[C@@H]2CCCC[C@H]2N(C)S(C)(=O)=O)n1 [Example I-175] | 0.64 nM
31 | COc1cc(Nc2ncc(C(F)(F)F)c(N[C@@H]3CCCC[C@H]3N(C)S(C)(=O)=O)n2)ccc1NC(C)=O [Example I-177] | 2 nM
32 | COc1cc(N2CCN(C(C)(C)C)CC2)ccc1Nc1ncc(Br)c(N[C@@H]2CCCC[C@H]2N(C)S(C)(=O)=O)n1 [Example I-182] | 4 nM
33 | COc1cc(N2CCN(C(C)(C)C)CC2)ccc1Nc1ncc(Cl)c(N[C@@H]2CCCC[C@H]2N(C)S(C)(=O)=O)n1 [Example I-183] | 4 nM
34 | CC(=O)Nc1ccc(Nc2ncc(C(F)(F)F)c(N[C@@H]3CCCC[C@H]3N(C)S(C)(=O)=O)n2)cc1C [Example I-186] | 4 nM
35 | CC(=O)Nc1ccc(Nc2ncc(C(F)(F)F)c(N[C@@H]3CCCC[C@H]3N(C)S(C)(=O)=O)n2)cc1Cl [Example I-187] | 6 nM
36 | CCN([C@@H]1CCCC[C@H]1Nc1nc(Nc2ccc(NC(C)=O)c(C)c2)ncc1C(F)(F)F)S(C)(=O)=O [Example I-188] | 16 nM
37 | CCN([C@@H]1CCCC[C@H]1Nc1nc(Nc2ccc(NC(C)=O)c(OC)c2)ncc1C(F)(F)F)S(C)(=O)=O [Example I-189] | 9 nM
38 | COc1cc(Nc2ncc(Cl)c(N[C@@H]3CCCC[C@H]3NC(C)=O)n2)cc(OC)c1OC [Example I-190] | 13 nM
